Measurements reported in US20250257041A1, “INDUCERS OF INTEGRATED STRESS RESPONSE TO TREAT CANCER” (The Board of Regents of The University of Texas System, priority 2022, published 2025).

tested on: HCT116 WT; assay: Proliferation of HCT116 colorectal cell line, Cell TiterGlo; format: cell-based, human; settings: Homo sapiens, HCT-116, wild type HCT116; 10-point dose response in triplicate; multiple values = separate independent experiments; read-out: HCT116 IC50 (uM) HCT116 WT
Procedure: Briefly, compounds were tested for their effect on proliferation of HCT116 colorectal cell lines using Cell TiterGlo (Promega). Each compound was tested in a 10-point dose response experiment in triplicate. Multiple values in the column titled HCT116 WT reflect separate independent experiments. The three columns titled “HCT116 WT (repeat)”, “HCT116-CGN2KO” and “HCT116 WT+ISRIB” provide data for selected compounds that were tested simultaneously under three conditions. The HCT116 WT column lists IC50 against the wild type HCT116 colorectal cancer cell line. The HCT116-CGN2KO lists IC50 data for cells in which one component of the integrated stress response, GCN2, has been knocked out using CRISPR technology.

Row | SMILES | IC50 [µM]
1 | Cc1ncccc1C(=O)Nc1ccc(-c2cc(NC(=O)c3ccccc3)n(C)n2)c(F)c1 [SW394694, N-(4-(5-Benzamido-1-methyl-1H-pyrazol-3-yl)-3-fluorophenyl)-2-methylnicotinamide] | 0.03
2 | C#CCOc1cccc(C(=O)Nc2cc(-c3ccc(NC(=O)c4ccccc4N=[N+]=[N-])cc3)nn2C)c1 [SW393186, 2-Azido-N-(4-(1-methyl-5-(3-(prop-2-yn-1-yloxy)benzamido)-1H-pyrazol-3-yl)phenyl)benza-mide] | 0.1
3 | Cn1nc(-c2ccc(NC(=O)c3ccccc3Cl)cc2)cc1NC(=O)c1cccc(CCCNC(=O)CCCC[C@H]2SC[C@H]3NC(=O)N[C@H]32)c1 [SW394692, 2-chloro-N-(4-(1-methyl-5-(3-(3-(5-((3aR,4R,6aS)-2-oxohexahydro-1H-thieno[3,4-d]142 imidazole-4-yl)pentanamido)propyl)benzamido)-1H-pyrazol-3-yl)phenyl)benzamide] | 0.5
4 | Cn1nc(-c2ccc(NC(=O)c3ccccc3Cl)cc2)cc1NC(=O)c1cccc(OCCN)c1 [SW394970, N-(4-(5-(3-(2-aminoethoxy)benzamido)-1-methyl-1H-pyrazol-3-yl)phenyl)-2-chlorobenzamide] | 0.05
5 | Cn1nc(-c2ccc(NC(=O)c3ccccc3Cl)cc2)cc1NC(=O)N1CCCCC1 [SW394874, N-(3-(4-(2-Chlorobenzamido)phenyl)-1-methyl-1H-pyrazol-5-yl)piperidine-1-carboxamide] | 0.067
6 | Cn1nc(-c2ccc(NC(=O)C3CCC3)cc2)cc1NC(=O)c1ccccc1 [SW394491, N-(3-(4-(Cyclobutanecarboxamido)phenyl)-1-methyl-1H-pyrazol-5-yl)benzamide] | 12
7 | Cn1nc(-c2ccc(NC(=O)c3ccccc3C#CCNC(=O)OC(C)(C)C)cc2)cc1NC(=O)c1ccccc1 [SW394544, tert-butyl(3-(2-((4-(5-benzamido-1-methyl-1H-pyrazol-3-yl)phenyl)carbamoyl)phenyl)prop-2-yn-1-yl)carbamate] | 1.2
8 | Cn1nc(-c2ccc(NC(=O)N3CCOCC3)cc2)cc1NC(=O)c1ccccc1 [SW394892-1, N-(4-(5-benzamido-1-methyl-1H-pyrazol-3-yl)phenyl)morpholine-4-carboxamide] | > 5
9 | Cc1ncccc1C(=O)Nc1ccc(-c2cc(NC(=O)C3CCC(F)(F)CC3)n(C)n2)cc1F [SW394744, N-(4-(5-(4,4-Difluorocyclohexane-1-carboxamido)-1-methyl-1H-pyrazol-3-yl)-2-fluorophen-yl)-2-methylnicotinamide] | > 50
10 | Cn1nc(-c2ccc(NC(=O)c3cccc(CN=[N+]=[N-])c3Cl)cc2)cc1NC(=O)c1ccccc1Cl [SW394763, 3-(azidomethyl)-2-chloro-N-(4-(5-(2-chlorobenzamido)-1-methyl-1H-pyrazol-3-yl)phenyl)benzamide] | 0.02
11 | Cc1ncccc1C(=O)Nc1ccc(-c2cc(NC(=O)c3ccccc3Cl)n(C)n2)cc1 [SW394630, N-(4-(5-(2-Chlorobenzamido)-1-methyl-1H-pyrazol-3-yl)phenyl)-2-methylnicotinamide] | 0.014
12 | C#Cc1cccc(C(=O)Nc2cc(-c3ccc(NC(=O)c4ccccc4N=[N+]=[N-])cc3)nn2C)c1 [SW393185, 2-Azido-N-(4-(5-(3-ethynylbenzamido)-1-methyl-1H-pyrazol-3-yl)phenyl)benzamide] | 0.13

Second part, the compound after the results:

Row | IC50 [µM] | SMILES
13 | 2.03 | COc1ccc(C(=O)Nc2cc(-c3ccc(NC(=O)c4ccccc4)cc3)nn2C)cc1 [SW388718, N-(3-(4-Benzamidophenyl)-1-methyl-1H-pyrazol-5-yl)-4-methoxybenzamide]
14 | 0.3 | Cn1nc(-c2ccc(NC(=O)c3ccccc3C3CCN(C(=O)OC(C)(C)C)CC3)cc2)cc1NC(=O)c1ccccc1 [SW394764, tert-butyl4-(2-((4-(5-benzamido-1-methyl-1H-pyrazol-3-yl)phenyl)carbamoyl)phenyl)piperidine-1-carboxylate]
15 | 0.14 | Cn1nc(-c2ccc(NC(=O)c3ccccc3Cl)cc2)cc1NC(=O)c1cccc(C(=O)c2ccccc2)c1 [SW393187, N-(4-(5-(3-benzoylbenzamido)-1-methyl-1H-pyrazol-3-yl)phenyl)-2-chlorobenzamide]
16 | 0.03 | Cn1nc(-c2ccc(NC(=O)c3ccccc3Cl)cc2)cc1NC(=O)c1cccc(NS(C)(=O)=O)c1 [SW394895-1, 2-chloro-N-(4-(1-methyl-5-(3-(methylsulfonamido)benzamido)-1H-pyrazol-3-yl)phenyl)benzamide]
17 | 0.05 | Cn1nc(-c2ccc(NC(=O)c3ccccc3Cl)cc2)cc1NC(=O)C1CCOCC1 [SW394547, N-(3-(4-(2-Chlorobenzamido)phenyl)-1-methyl-1H-pyrazol-5-yl)tetrahydro-2H-pyran-4-car-boxamide]
18 | 0.051 | Cn1nc(-c2ccc(NC(=O)c3ccccc3Cl)cc2)cc1NC(=O)C1CCCC1 [SW394600, 2-Chloro-N-(4-(5-(cyclopentanecarboxamido)-1-methyl-1H-pyrazol-3-yl)phenyl)benzamide]
19 | 0.03 | Cn1nc(-c2ccc(NC(=O)c3ccccc3Cl)cc2)cc1NC(=O)C1CC2CCC1CC2 (centres unmarked) [SW394969, N-(3-(4-(2-chlorobenzamido)phenyl)-1-methyl-1H-pyrazol-5-yl)bicyclo[2.2.2]octane-2-carboxamide]
20 | 0.01 | COC(=O)c1cccc(C(=O)Nc2cc(-c3ccc(NC(=O)c4ccccc4Cl)cc3)nn2C)c1 [SW394878, Methyl 3-((3-(4-(2-chlorobenzamido)phenyl)-1-methyl-1H-pyrazol-5-yl)carbamoyl)benzoate]
21 | 1.1 | Cn1nc(-c2ccc(NC(=O)OC(C)(C)C)cc2)cc1NC(=O)c1ccccc1 [SW388713, tert-Butyl (4-(5-benzamido-1-methyl-1H-pyrazol-3-yl)phenyl)carbamate]
22 | 0.017 | Cn1nc(-c2ccc(NC(=O)c3cccnc3C(F)(F)F)cc2)cc1NC(=O)c1ccccc1F [SW394629, N-(4-(5-(2-Fluorobenzamido)-1-methyl-1H-pyrazol-3-yl)phenyl)-2-(trifluoromethyl)nicotinamide]
23 | 1.09 | COc1cccc(C(=O)Nc2ccc(-c3cc(NC(=O)c4ccccc4)n(C)n3)cc2)c1 [SW388711, N-(4-(5-Benzamido-1-methyl-1H-pyrazol-3-yl)phenyl)-3-methoxybenzamide]
24 | 0.541 | Cn1nc(-c2ccc(NC(=O)c3cc(NC(=O)OC(C)(C)C)ccc3Cl)cc2)cc1NC(=O)c1ccccc1 [SW394967, tert-butyl (3-((4-(5-benzamido-1-methyl-1H-pyrazol-3-yl)phenyl)carbamoyl)-4-chlorophenyl)carbamate]
25 | 0.044 | Cn1nc(-c2ccc(CC(=O)c3ccccc3CCCNC(=O)CCCC[C@@H]3CC[C@]4(C)CCC[C@H]34)cc2)cc1CC(=O)c1ccccc1 [SW394657]
26 | 0.02 | Cc1ncccc1C(=O)Nc1ccc(-c2cc(NC(=O)c3ccccc3Cl)n(C)n2)c(F)c1 [SW394699, N-(4-(5-(2-chlorobenzamido)-1-methyl-1H-pyrazol-3-yl)-3-fluorophenyl)-2-methylnicotinamide]
27 | 0.03 | Cc1ccccc1C(=O)Nc1cc(-c2ccc(NC(=O)c3ccccc3Cl)cc2)nn1C [SW393217, 2-chloro-N-(4-(1-methyl-5-(2-methylbenzamido)-1H-pyrazol-3-yl)phenyl)benzamide]
28 | 0.06 | C#CCOCc1ccccc1C(=O)Nc1ccc(-c2cc(NC(=O)c3ccccc3)n(C)n2)cc1 [SW393189, N-(4-(5-benzamido-1-methyl-1H-pyrazol-3-yl)phenyl)-2-((prop-2-yn-1-yloxy)methyl)benzamide]
29 | 11.4 | Cn1nc(-c2ccc(NC(=O)c3ccccc3COCc3cn(CCOCCNC(=S)Nc4ccc(-c5c6ccc(=O)cc-6oc6cc(O)ccc56)c(C(=O)O)c4)nn3)cc2)cc1NC(=O)c1ccccc1 [SW393345, 5-(3-(2-(2-(4-(((2-((4-(5-benzamido-1-methyl-1H-pyrazol-3-yl)phenyl)carbamoyl)benzyl)oxy)methyl)-1H-1,2,3-triazol-1-yl)ethoxy)ethyl)thioureido)-2-(6-hydroxy-3-oxo-3H-xanthen-9-yl)benzoic acid]
30 | 17 | C#Cc1cccc(C(=O)Nc2cc(-c3ccc(NC(=O)c4cccc(C5(C(F)(F)F)N=N5)c4)cc3)nn2C)c1 [SW393243, 3-Ethynyl-N-(1-methyl-3-(4-(3-(3-(trifluoromethyl)-3H-diazirin-3-yl)benzamido)phenyl)-1H-pyrazol-5-yl)benzamide]
31 | 0.107 | Cn1nc(-c2ccc(NC(=O)c3ccccc3-c3cncnc3)cc2)cc1NC(=O)c1ccccc1 [SW394485, N-(4-(5-Benzamido-1-methyl-1H-pyrazol-3-yl)phenyl)-2-(pyrimidin-5-yl)benzamide]
32 | 0.033 | Cn1nc(-c2ccc(NC(=O)c3ccccc3Cl)cc2)cc1NC(=O)C1CCCCC1 [SW394546, 2-Chloro-N-(4-(5-(Cyclohexanecarboxamido)-1-methyl-1H-pyrazol-3-yl)phenyl)benzamide]

same assay, conditions: wild type HCT116; 10-point dose response in triplicate; multiple values = separate independent experiments

Row | HCT116 IC50 (uM) HCT116 WT | SMILES
33 | inactive | CC(=O)N1CCN(C(=O)Nc2cc(-c3ccc(NC(=O)c4ccccc4Cl)cc3)nn2C)CC1 [SW394877, 4-Acetyl-N-(3-(4-(2-chlorobenzamido)phenyl)-1-methyl-1H-pyrazol-5-yl)piperazine-1-carb-oxamide]
34 | inactive | CN1CCN(C(=O)Nc2cc(-c3ccc(NC(=O)c4ccccc4Cl)cc3)nn2C)CC1 [SW394875, N-(3-(4-(2-Chlorobenzamido)phenyl)-1-methyl-1H-pyrazol-5-yl)-4-methylpiperazine-1-carb-oxamide]

same assay, conditions: wild type HCT116; 10-point dose response in triplicate; multiple values = separate independent experiments; read-out: HCT116 IC50 (uM) HCT116 WT

Row | IC50 [µM] | SMILES
35 | 7.4 | Cn1nc(-c2ccc(NC(=O)N3CCCCC3)cc2)cc1NC(=O)c1ccccc1 [SW394601, N-(4-(5-benzamido-1-methyl-1H-pyrazol-3-yl)phenyl)piperidine-1-carboxamide]
